Reference: US5563125A, “5'-deoxy-5'-(substituted)alkylthioribose compounds and their pharmaceutical compositions” (priority 1992, dated 1996)

Tests used:
[1] = system: Plasmodium falciparum (Strain FCR-3: ATCC #30932); test: Antimalarial activity in vitro, 3H-hypoxanthine incorporation; format: cell-based; details: strain FCR-3, in vitro
Procedure: P. falciparum was cultured by the method of Trager and Jensen (1976). The FCR-3 strain was used for all experiments. For enzyme measurements, parasites were isolated from infected red cells by saponin lysis and stored at -70° C.
To determine drug effects, ^3 H-hypoxanthine incorporation was measured in the following manner. Infected red cells and varying concentrations of drugs were aliquoted in triplicate wells of a 96-well microtiter plate (Corning). Each well contained a total volume of 200 μl with a final hematocrit of 5 percent and parasitemia of 0.5-1%. The microtiter plates were incubated at 37° C. in candle jars. ^3 H-hypoxanthine (0.5 μCi) was added to each well after 24 hours. After an additional 24 hours of incubation, the parasites were harvested using a PHD cell harvester (Cambridge Technologies). Filters were immersed in Aquasol (New England Nuclear) and counted using a LKB rack beta scintillation counter.
*Concentration which inhibits growth by 50% when compared to untreated,
control cultures, and under defined assay conditions.

[2] = system: T. b. brucei procyclic trypanosomes (Lab 110 EATRO strain); test: In vitro antitrypanosomal activity, procyclic trypanosomes in T2 medium; format: cell-based, Trypanosoma brucei brucei; details: Trypanosoma brucei, 3-5 days
Procedure: The antitrypanosomal effects of HETA and other nucleosides were examined in the Lab 110 EATRO strain of T. b. brucei in culture.
Cells were cultured as described in Bacchi et al. Exp. Parasitol. 68, 392, 1989. Cells were then grown in the presence of the compounds for 3-5 days. Drugs were filtered, sterilized and added aseptically. Control cells achieved a maximum density of 1.5-3.5×10^7 /ml. Hemocytometer counts were made daily and the results were expressed as a percent of control growth. IC50 plots were obtained by graphing log (drug) vs. percent growth inhibition.
Trypanocidal Activity of MTA and MTR Analogs
against T. b. brucei procyclic trypanosomes in T2 medium.

[3] = system: P. falciparum; test: In vitro antimalarial activity of HETA; format: cell-based, Plasmodium falciparum; details: P. falciparum in vitro screen
[4] = substrate: CSC[C@H]1O[C@@H](n2cnc3c(N)ncnc32)[C@H](O)[C@@H]1O; test: Mouse liver MTA phosphorylase substrate/inhibitor assay; format: biochemical; details: other: mouse liver MTA phosphorylase
Procedure: ^a MTA phosphorylase activity was assayed as described in Sufrin et

Row | Molecule | IC50 [1] | IC50 [2] | growth of the microorganism inhibited in an in vitro screen [3] | Km [4]
1 | OC1O[C@H](CSCCF)[C@@H](O)[C@H]1O (stereo partly shown) [MFETR, 5-deoxy-5-(monofluoroethylthio)ribose] | 700 µM | – | – | –
2 | Mouse Liver MTA Phosphorylase (Mus musculus) (protein, of Mouse Liver MTA Phosphorylase; from tissue; host or cells: mouse liver) MASGSACTAVKIGIIGGTGLDDPEILEGRTEKYVDTPFGKPSDALILGKIKNVDCVLLARHGRQHTIMPSKVNYQANIWALKEEGCTHVIVTTACGSLREEIQPGDMVIIDQFIDRTSLRPQTFYDGSHCSARGVCHIPMAEPFCPKTREVLIETAKKLGLRCHSKGTIVTIEGPRFSSRAESLIFRTWGADVVNMTTVPEVVLAKEAGICYASIAMATDYDCWKEHEEAVSVDGVLKTMKENANKAKSLLLTTIPQIGSMEWSETLRNLKNMAQFSVLPPRH | – | – | – | 1.3 µM

Further lines, with some results ahead:

Row | IC50 [1] | Molecule | IC50 [2] | growth of the microorganism inhibited in an in vitro screen [3] | Km [4]
3 | > 1000 µM | CCSC[C@H]1OC(O)[C@H](O)[C@@H]1O (stereo partly shown) [ETR, 5-deoxy-5-(ethylthio)ribose, reference compound] | > 100 µM | – | –
4 | > 1000 µM | OCCSC[C@H]1OC(O)[C@H](O)[C@@H]1O (stereo partly shown) [HETR, 5-deoxy-5-(hydroxyethylthio)ribose] | > 100 µM | not | –
